The values that follow come from patent US5684003A, “5-HT4 receptor agonists” (Nisshin Flour Milling Co., Ltd., priority 1994, dated 1997).

pEC50: −log10 of the molar value. Read-outs that look alike come from different tables or passages of the source.

Data set [1] deals with T1, 5-HT3 receptor (Rattus norvegicus, UniProt P35563).
T1 construct: from tissue; host or cells: whole anesthetized rat (in vivo); endogenous receptor
T1 sequence (P35563 24-483): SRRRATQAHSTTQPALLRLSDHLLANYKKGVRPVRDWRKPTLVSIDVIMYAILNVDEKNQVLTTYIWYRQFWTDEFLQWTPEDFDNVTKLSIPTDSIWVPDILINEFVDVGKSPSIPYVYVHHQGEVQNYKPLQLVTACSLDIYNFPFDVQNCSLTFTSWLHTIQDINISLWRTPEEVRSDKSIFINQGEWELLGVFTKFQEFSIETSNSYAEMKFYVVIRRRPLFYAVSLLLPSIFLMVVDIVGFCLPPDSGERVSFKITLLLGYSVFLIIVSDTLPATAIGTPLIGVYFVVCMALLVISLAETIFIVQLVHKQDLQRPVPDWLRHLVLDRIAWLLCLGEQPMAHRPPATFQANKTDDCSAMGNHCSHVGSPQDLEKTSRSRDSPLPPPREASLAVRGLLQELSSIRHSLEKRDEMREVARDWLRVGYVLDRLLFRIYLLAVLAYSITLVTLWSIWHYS
Kind of data set: 5-HT3 receptor antagonist activity: inhibition of 2-Me-5-HT-induced reduction in heart rate in anesthetized rats. The class given is in vivo. The note with it: iv (jugular vein) 5 minutes before 2-Me-5-HT 0.1 mg/kg, read-out: IC50 (the source's name). As to the method: For the purpose of studying a receptor selectivity of the present compounds, the 5-HT3 receptor antagonist activity was tested in the following manner. Rats were anesthetized with urethane and heart rate was recorded through femoral artery. The 5-HT3 selective agonist, 2-methyl-5-hydroxytryptamine (2-Me-5-HT) was administered at 0.1 mg/kg through carotid arteries and transient reduction in heart rate was recorded. The test. compounds were administered through jugular vein at 5 minutes before the administration of 2-Me-5-HT, inhibitory rate of reduction in heart rate by the administration of 2-Me-5-HT was calculated and IC50 value was calculated from the inhibitory rate.

Data set [2] has as its system gastric motility. Kind of data set: Gastric motility after meal in beagle dogs (force transducer, Motility Index). The class given is in vivo, dog (beagle). The following applies: 60 min after feeding, percentage to MI at 15 minutes before administration. On the procedure:
The present compounds were investigated for the gastrointestinal motility activity by the following procedure, by which the gastrointestinal prokinetic action was confirmed.
Beagle dogs inserted with a forced transducer at the anterior wall of stomach were used after a convelescence period of more than one month.
Dogs fasted overnight were given a food (375 g of a dog food) and gastric motility after meal was determined. After 60 minutes of the feeding, the test compounds were intravenously injected and the promoting action on gastric motility after meal was determined. The area under contracting wave forms of gastric motility (Motility Index: MI) was calculated and expressed in terms of percentage to the MI at 15 minutes before the administration of the test compound.

Data set [3] is described as follows: Chromosomal aberration test.
Data set [4] in a line: Micronucleus test. An excerpt:
(§1) The compound of Example 5 was repeatedly administered orally to rats (male, female) over the period of 2 weeks to perform a toxicological investigation.

Data set [5] can be described thus: Reverse mutation test (Ames test). On the technique in general: In the Ames test, an excess of revertant colonies over the control signals mutagenicity.
The subject of data set [6] is gastric-emptying. Kind of data set: Gastric-emptying promoting action (semi-solid test meal, fasted rats). It counts as in vivo, rat. The note with it: relative to distilled water group (C/D×100). On the procedure: The present compounds were evaluated for the gastrointestinal prokinetic action, employing as an index the gastric-emptying promoting action. Fasted rats were orally given the test compound or distilled water. After 60 minutes, 3 ml of a test meal (a semi-solid food) was given into stomach by means of a probe. After 60 minutes, animals were sacrificed and stomach was excised and weighed. After washing out the gastric content, the stomach was again weighed to calculate the gastric content amount. The results were shown in the following table by calculating the gastric emptying rate (C) from the weight of the test meal given (A) and the weight of the test meal retained in the stomach (B), and expressing in terms of the gastric-emptying promoting rate to the gastric-emptying rate of the distilled water-given group(D).
Gastric-emptying rate(C)=(A-B)/A×100
Gastric-emptying promoting rate=C/D×100

Data set [7] has as its target 5-HT4 receptor (Cavia porcellus, UniProt O70528). Kind of data set: Increase in contraction height of electrically stimulated longitudinal muscle of isolated guinea pig ileum (LMMP). The class given is cell-based. Set-up: key: +: indicates the increase in the contraction height; -: indicates no effect. The following applies: test concentration 10^-7 M. An excerpt:
Ileum was excised from guinea pigs to prepare longitudinal muscle samples with approximately 2 cm length. The sample was suspended in Krebs-Henseleit liquid bath supplied with a mixed gas (95% O2, 5% CO2) and subjected to electrical stimulation (1 msec, 0.1 Hz) to record contraction force isometrically. The test compounds were. dissolved in distilled water or DMSO and tested at a concentration of 10^-7 M (but 10^-6 M for Compound 11). The results are shown by the presence or absence of the increase in the contraction height by electrical stimulation before administration of the compound, wherein the symbol "+" indicates the increase in the contraction height, while "-" indicates no effect.
Whether or not the action of the above compounds is that via activation of 5-HT4 receptors was investigated using as 5-HT4 receptor antagonist, SDZ 205-557 (2-methoxy-4-amino-5-chlorobenzoic acid 2-(diethylamino)ethyl ester) described in Naunyn-Schmiedeberg's Arch Pharmacol (1992) 345:387-393. Thus, the investigation as to whether SDZ 205-557 can antagonize the increase in the contraction height of the above compounds using the longitudinal muscle preparation of the isolated guinea pig ileum can reveal that such increase in the contraction height is the action via activation of 5-HT4 receptors.

Data set [8] has as its target T2, 5-HT4 receptors (Rattus norvegicus, UniProt Q62758).
T2 construct: from tissue; host or cells: rat oesophageal tunica muscularis mucosae
Kind of data set: Relaxation of carbachol-contracted rat oesophageal tunica muscularis mucosae. It counts as cell-based. On the procedure: The agonistic activity of oxazabicyclo derivatives and Mosapride on 5-HT4 receptors was determined by the procedure mentioned in Naunyn-Schmiedeberg's Arch Pharmacol (1991) 343:439-446.
The rat oesophageal tunica muscularis mucosae were suspended in organ both containing Krebs-Henseleit solution aerated with a mixed gas (95% O2, 5% CO2) and contracted with carbachol (1×10^-6 M). After the contraction was stabilized, the cumulative administration of the compounds was performed to determine the relaxation of the rat oesophagus pre-contracted with carbachol. The concentration (ED50) to cause 50% relaxation of the carbachol-induced contraction was measured. The result is expressed in terms of -log ED50 and shown in the following table in which higher numerical value indicates higher activity.

The nature of data set [9]: Two-week repeated oral toxicological investigation in rats. It counts as in vivo, rat. The following applies: rats (male, female), 2 weeks, dose figure missing ("a dose of mg/kg").
Source text: as §1

T2 sequence (Q62758 whole entry): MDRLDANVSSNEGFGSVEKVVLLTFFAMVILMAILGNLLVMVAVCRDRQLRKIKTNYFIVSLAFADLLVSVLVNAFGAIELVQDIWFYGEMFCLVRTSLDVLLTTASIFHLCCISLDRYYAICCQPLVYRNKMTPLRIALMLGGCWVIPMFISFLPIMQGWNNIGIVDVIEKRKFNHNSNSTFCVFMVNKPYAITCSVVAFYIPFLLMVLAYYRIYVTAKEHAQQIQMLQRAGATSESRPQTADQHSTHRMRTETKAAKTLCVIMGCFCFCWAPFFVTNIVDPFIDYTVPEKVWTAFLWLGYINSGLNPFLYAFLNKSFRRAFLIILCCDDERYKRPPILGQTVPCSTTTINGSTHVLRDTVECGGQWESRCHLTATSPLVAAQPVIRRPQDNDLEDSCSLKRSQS
Sequence of 5-HT4 receptor (O70528 whole entry): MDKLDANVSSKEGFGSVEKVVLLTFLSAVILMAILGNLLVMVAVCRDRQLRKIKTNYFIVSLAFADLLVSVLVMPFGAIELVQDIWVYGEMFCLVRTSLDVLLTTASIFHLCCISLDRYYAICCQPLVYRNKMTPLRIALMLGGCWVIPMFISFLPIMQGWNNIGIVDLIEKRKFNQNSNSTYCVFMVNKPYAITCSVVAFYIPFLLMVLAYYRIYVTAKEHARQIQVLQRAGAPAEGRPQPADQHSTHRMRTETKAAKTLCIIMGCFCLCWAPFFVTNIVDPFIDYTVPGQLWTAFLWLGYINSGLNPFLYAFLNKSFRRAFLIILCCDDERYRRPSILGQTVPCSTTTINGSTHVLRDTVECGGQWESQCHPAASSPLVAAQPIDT

In the case of `CCCCN1[C@@H]2COC[C@H]1C[C@@H](NC(=O)c1nn(C(C)C)c3ccccc13)C2` [Example 5, N-[endo-9-(n-Butyl)-3-oxa-9-azabicyclo[3.3.1]non-7-yl]-1-isopropyl-indazole-3-carboxamide], the ED50 in data set [1] was determined as 0.0427 mg/kg. Also, the “MI (Motility Index)” value is on record as 145.8% in data set [2] (0.03 mg/kg iv), 208.2% in data set [2] (0.1 mg/kg iv) and 324.9% in data set [2] (0.3 mg/kg iv). Besides, the chromosomal aberration test result in data set [3] is recorded as “negative”. Besides, the micronucleus test result in data set [4] was “negative”. Also, the “reverse mutation test (Ames test)” value in [5] is listed as “negative”. Besides, the mutagenicity result in [5] (overall from Ames, chromosomal aberration and micronucleus tests) was “no mutagenicity was observed”. Further, the Gastric-emptying promoting rate is 110.7 in data set [6] (0.03 mg/kg oral), 124.2 in data set [6] (0.1 mg/kg oral) and 127.5 in [6] (0.3 mg/kg oral). Further, the “LMMP: presence or absence of the increase in the contraction height by electrical stimulation” value in [7] is given as “+”. Further, in data set [8], the pEC50 (commonly the negative decadic logarithm of the EC50, by convention in mol/L) is 6.00. Moreover, in [9], the toxicological changes result is “no toxicological changes were observed”.

Turning to `CCOc1cc(N)c(Cl)cc1C(=O)NCC1CN(Cc2ccc(F)cc2)CCO1` (stereo not shown) [Mosapride, reference compound], the “MI (Motility Index)” value in [2] (1 mg/kg iv) turned out to be 151.0%. For the same compound, the Gastric-emptying promoting rate is listed as 103.5 in data set [6] (0.3 mg/kg oral), 125.3 in [6] (1 mg/kg oral) and 128.1 in [6] (3 mg/kg oral). For the same compound, in data set [8] (ED50 = concentration to cause 50% relaxation of contraction by carbachol (1×10^-6 M), cumulative administration, read-out: Activity (-log ED50) (converted)), the EC50 is 34.7 µM.
